Here are results for 17 compounds from patent US10406146B2, “Heterocyclic compound” (TAKEDA PHARMACEUTICAL COMPANY LIMITED, priority 2015, dated 2019).

Holding throughout (type): biochemical
One assay has as its target T1, HDAC6 enzyme (Homo sapiens, UniProt Q9UBN7).
T1 construct: transducing full length HDAC1 and HDAC6 genes into Sf-9 insect cells; GST; purchased SignalChem; host or cells: Sf-9 insect cells
T1 sequence (Q9UBN7 1-1215): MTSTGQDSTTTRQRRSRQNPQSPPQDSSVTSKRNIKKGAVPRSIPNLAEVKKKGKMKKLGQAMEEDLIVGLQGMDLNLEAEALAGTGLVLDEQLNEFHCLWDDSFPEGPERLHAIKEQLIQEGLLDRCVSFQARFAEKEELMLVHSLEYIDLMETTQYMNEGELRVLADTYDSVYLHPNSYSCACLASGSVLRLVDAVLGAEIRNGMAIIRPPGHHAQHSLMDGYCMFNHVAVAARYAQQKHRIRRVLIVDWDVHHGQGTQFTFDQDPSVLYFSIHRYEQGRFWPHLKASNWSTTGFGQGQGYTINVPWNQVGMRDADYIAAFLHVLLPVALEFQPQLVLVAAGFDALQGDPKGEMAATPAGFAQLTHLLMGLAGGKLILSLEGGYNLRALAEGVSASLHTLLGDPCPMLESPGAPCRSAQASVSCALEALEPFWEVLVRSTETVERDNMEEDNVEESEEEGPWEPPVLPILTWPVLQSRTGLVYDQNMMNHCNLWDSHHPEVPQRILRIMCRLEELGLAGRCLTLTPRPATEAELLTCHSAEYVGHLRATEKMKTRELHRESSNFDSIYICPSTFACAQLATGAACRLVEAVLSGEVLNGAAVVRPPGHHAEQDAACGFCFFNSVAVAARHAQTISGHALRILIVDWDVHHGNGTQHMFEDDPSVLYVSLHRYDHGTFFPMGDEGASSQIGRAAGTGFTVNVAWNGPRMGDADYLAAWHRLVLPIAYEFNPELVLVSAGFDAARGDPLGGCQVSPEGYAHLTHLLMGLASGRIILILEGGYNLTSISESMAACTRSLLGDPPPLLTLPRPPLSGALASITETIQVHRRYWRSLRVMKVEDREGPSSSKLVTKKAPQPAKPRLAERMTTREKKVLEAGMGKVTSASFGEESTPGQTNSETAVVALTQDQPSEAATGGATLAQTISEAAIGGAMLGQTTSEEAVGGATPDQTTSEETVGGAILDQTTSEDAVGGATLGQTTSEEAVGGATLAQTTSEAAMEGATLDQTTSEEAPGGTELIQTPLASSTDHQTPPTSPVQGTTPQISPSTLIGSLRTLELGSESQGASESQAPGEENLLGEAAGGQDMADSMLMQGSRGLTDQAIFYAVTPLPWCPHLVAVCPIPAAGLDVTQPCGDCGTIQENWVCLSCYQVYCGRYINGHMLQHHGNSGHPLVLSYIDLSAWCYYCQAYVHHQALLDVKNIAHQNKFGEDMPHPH
The assay is described as follows: HDAC6 enzyme inhibitory assay (HDAC-Glo I/II Assay kit). The note with it: wells without enzyme = 100% inhibition; for inhibition at 1 µM: read-out: HDAC6 inhibitory rate (%) (1 μM). The gist of the method: (§1)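 Luminescence readout (HDAC-Glo I/II) after 20 min RT reaction of GST-purified full-length HDAC1 or HDAC6 (Sf-9 expressed) with substrate-developer; enzyme and compound preincubated 60 min RT; buffer 24 mM Tris-HCl pH 7.5, 0.6 mM glutathione, 0.01% Tween-20; no-enzyme wells = 100% inhibition.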

The target of another assay is T2, HDAC9 enzyme (Homo sapiens, UniProt Q9UKV0).
T2 construct: transducing full length HDAC9 gene into Sf-9 insect cells; made in house; host or cells: Sf-9 insect cells
As to the kind of experiment: HDAC9 enzyme inhibitory assay (HDAC-Glo class IIa). To be noted: wells without enzyme = 100% inhibition; for inhibition at 1 µM: read-out: HDAC9 inhibitory rate (%) (1 μM). The gist of the method:
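Luminescent HDAC-Glo class IIa readout after a 20 min room-temperature reaction; relative inhibition referenced to enzyme-free wells as 100%. Test compound first preincubated 60 min with Sf-9-expressed, Ni-NTA-purified full-length HDAC9 in pH 7.5 Tris buffer containing 135 mM NaCl, 0.6 mM glutathione and 0.01% Tween-20.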

The target of another assay is T3, HDAC1 enzyme (Homo sapiens, UniProt Q13547).
T3 construct: transducing full length HDAC1 and HDAC6 genes into Sf-9 insect cells; GST; purchased SignalChem; host or cells: Sf-9 insect cells
As to the kind of experiment: HDAC1 enzyme inhibitory assay (HDAC-Glo I/II Assay kit). The note with it: wells without enzyme = 100% inhibition; for inhibition at 1 µM: read-out: HDAC1 inhibitory rate (%) (1 μM). In a few lines:
as §1

T3 sequence (Q13547 whole entry): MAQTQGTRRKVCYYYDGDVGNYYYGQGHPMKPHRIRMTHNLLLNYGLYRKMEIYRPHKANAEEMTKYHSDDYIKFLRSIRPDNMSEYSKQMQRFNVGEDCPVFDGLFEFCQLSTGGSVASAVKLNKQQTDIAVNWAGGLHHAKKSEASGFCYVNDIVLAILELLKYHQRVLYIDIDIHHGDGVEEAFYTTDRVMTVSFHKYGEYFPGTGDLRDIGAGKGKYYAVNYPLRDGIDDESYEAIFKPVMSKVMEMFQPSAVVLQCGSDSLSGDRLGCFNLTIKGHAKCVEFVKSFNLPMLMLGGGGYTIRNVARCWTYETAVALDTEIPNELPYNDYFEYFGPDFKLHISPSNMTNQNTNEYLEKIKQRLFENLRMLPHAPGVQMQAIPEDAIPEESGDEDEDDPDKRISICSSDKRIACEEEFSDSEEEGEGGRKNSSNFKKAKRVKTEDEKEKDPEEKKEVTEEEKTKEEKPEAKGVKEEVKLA
T2 sequence (Q9UKV0 whole entry, species assumed): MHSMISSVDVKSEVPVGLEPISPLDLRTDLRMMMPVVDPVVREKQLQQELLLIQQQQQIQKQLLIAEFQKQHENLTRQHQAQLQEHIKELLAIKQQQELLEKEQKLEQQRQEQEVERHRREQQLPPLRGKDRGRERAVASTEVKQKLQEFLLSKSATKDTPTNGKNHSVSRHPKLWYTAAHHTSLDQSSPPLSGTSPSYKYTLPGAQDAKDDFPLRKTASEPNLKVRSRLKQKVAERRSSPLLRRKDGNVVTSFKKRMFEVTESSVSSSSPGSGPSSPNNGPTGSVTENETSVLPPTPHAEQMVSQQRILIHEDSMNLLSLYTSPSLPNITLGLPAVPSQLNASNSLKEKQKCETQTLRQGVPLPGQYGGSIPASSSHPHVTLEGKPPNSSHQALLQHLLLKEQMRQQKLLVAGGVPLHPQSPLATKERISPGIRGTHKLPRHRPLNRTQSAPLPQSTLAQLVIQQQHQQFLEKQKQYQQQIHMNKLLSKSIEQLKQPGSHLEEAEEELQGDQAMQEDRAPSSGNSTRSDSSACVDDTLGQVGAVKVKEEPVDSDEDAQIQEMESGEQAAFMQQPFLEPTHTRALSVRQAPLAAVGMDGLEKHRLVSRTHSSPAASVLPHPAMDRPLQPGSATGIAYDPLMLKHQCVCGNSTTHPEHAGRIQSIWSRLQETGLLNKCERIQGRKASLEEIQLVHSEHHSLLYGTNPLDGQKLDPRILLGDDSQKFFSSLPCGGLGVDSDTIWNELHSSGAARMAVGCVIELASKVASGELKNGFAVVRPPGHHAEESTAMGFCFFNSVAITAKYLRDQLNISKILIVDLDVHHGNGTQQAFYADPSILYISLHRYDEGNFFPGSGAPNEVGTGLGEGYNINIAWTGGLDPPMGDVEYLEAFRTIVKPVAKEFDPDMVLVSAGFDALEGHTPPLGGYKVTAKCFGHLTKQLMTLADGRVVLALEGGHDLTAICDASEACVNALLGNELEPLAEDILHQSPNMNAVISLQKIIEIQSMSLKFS

Consider `Cc1cccc(C(=O)NCC2CCCCN2C(=O)Nc2ccc(-c3noc(C(F)(F)F)n3)cc2)n1` (stereo not drawn) [Example 55, 6-methyl-N-((1-((4-(5-(trifluoromethyl)-1,2,4-oxadiazol-3-yl)phenyl)carbamoyl)piperidin-2-yl)methyl)pyridine-2-carboxamide], for which the inhibition at 1 µM is 2% at HDAC6 enzyme, 85% on HDAC9 enzyme and 31% on HDAC1 enzyme.

Turning to `O=C(NCC1CCCCN1C(=O)Nc1ccc(-c2noc(C(F)(F)F)n2)cc1)c1ccc(-c2ccccc2)cc1` (stereo not drawn) [Example 15, 2-(((biphenyl-4-ylcarbonyl)amino)methyl)-N-(4-(5-(trifluoromethyl)-1,2,4-oxadiazol-3-yl)phenyl)piperidine-1-carboxamide], the inhibition at 1 µM on HDAC6 enzyme is -1%; on HDAC9 enzyme it was 40%; on HDAC1 enzyme, -12%.

With `Cn1nc(C(=O)NCC2CCCCN2C(=O)Nc2ccc(-c3noc(C(F)(F)F)n3)cc2)c2ccccc21` (stereo not drawn) [Example 42, 1-methyl-N-((1-((4-(5-(trifluoromethyl)-1,2,4-oxadiazol-3-yl)phenyl)carbamoyl)piperidin-2-yl)methyl)-1H-indazole-3-carboxamide], the inhibition at 1 µM at HDAC6 enzyme was 3%; on HDAC9 enzyme, 71%; at HDAC1 enzyme it was 8%.

Turning to `O=C(NCC1CCCCN1C(=O)Nc1ccc(-c2noc(C(F)(F)F)n2)cc1)C1CCOCC1` (stereo not drawn) [Example 51, 2-(((tetrahydro-2H-pyran-4-ylcarbonyl)amino)methyl)-N-(4-(5-(trifluoromethyl)-1,2,4-oxadiazol-3-yl)phenyl)piperidine-1-carboxamide], the inhibition at 1 µM at HDAC6 enzyme was found to be 8%; on HDAC9 enzyme, 97%; on HDAC1 enzyme, 73%.

Consider `O=C(NCC1CCCCN1C(=O)Nc1ccc(-c2noc(C(F)(F)F)n2)cc1)c1cc2ccccc2o1` (stereo not drawn) [Example 44, 2-(((1-benzofuran-2-ylcarbonyl)amino)methyl)-N-(4-(5-(trifluoromethyl)-1,2,4-oxadiazol-3-yl)phenyl)piperidine-1-carboxamide], for which the inhibition at 1 µM at HDAC6 enzyme was 1%; on HDAC9 enzyme, 79%; at HDAC1 enzyme, 3%.

As to `N#Cc1ccc(C(=O)NCC2CCCCN2C(=O)Nc2ccc(-c3noc(C(F)(F)F)n3)cc2)cc1` (stereo not drawn) [Example 21, 2-(((4-cyanobenzoyl)amino)methyl)-N-(4-(5-(trifluoromethyl)-1,2,4-oxadiazol-3-yl)phenyl)piperidine-1-carboxamide], the figures for the inhibition at 1 µM on HDAC6 enzyme, on HDAC9 enzyme and at HDAC1 enzyme were 0%, 94% and 28%, respectively.

For the compound `Cc1ccc(C(=O)NCC2CCCCN2C(=O)Nc2ccc(-c3noc(C(F)(F)F)n3)cc2)cc1` (stereo not drawn) [Example 12, 2-(((4-methylbenzoyl)amino)methyl)-N-(4-(5-(trifluoromethyl)-1,2,4-oxadiazol-3-yl)phenyl)piperidine-1-carboxamide], the inhibition at 1 µM was 5% on HDAC6 enzyme, 67% at HDAC9 enzyme and -16% at HDAC1 enzyme.

Regarding `NC(=O)c1ccc(C(=O)NCC2CCCCN2C(=O)Nc2ccc(-c3noc(C(F)(F)F)n3)cc2)cc1` (stereo not drawn) [Example 22, N-((1-((4-(5-(trifluoromethyl)-1,2,4-oxadiazol-3-yl)phenyl)carbamoyl)piperidin-2-yl)methyl)terephthalamide], the figures for the inhibition at 1 µM at HDAC6 enzyme, on HDAC9 enzyme and on HDAC1 enzyme were 2%, 90% and 6%, respectively.

`O=C(NCC1CCCCN1C(=O)Nc1ccc(-c2noc(C(F)(F)F)n2)cc1)c1ccc(Cl)cc1Cl` (stereo not drawn) [Example 31]: on HDAC6 enzyme, the “HDAC6 inhibitory rate (%) (1 μM)” value is −1%. Further, on HDAC9 enzyme, the “HDAC9 inhibitory rate (%) (1 μM)” value is reported as 38%. At HDAC1 enzyme, the “HDAC1 inhibitory rate (%) (1 μM)” value is recorded as −12%.

As to `COc1ccc(C(=O)NCC2CCCCN2C(=O)Nc2ccc(-c3noc(C(F)(F)F)n3)cc2)cc1` (stereo not drawn) [Example 25, 2-(((4-methoxybenzoyl)amino)methyl)-N-(4-(5-(trifluoromethyl)-1,2,4-oxadiazol-3-yl)phenyl)piperidine-1-carboxamide], the inhibition at 1 µM amounted to 2% on HDAC6 enzyme, 95% on HDAC9 enzyme and 12% on HDAC1 enzyme.

Take `O=C(NCC1CCCCN1C(=O)Nc1ccc(-c2noc(C(F)(F)F)n2)cc1)c1cccc(Cl)c1` (stereo not drawn) [Example 8, 2-(((3-chlorobenzoyl)amino)methyl)-N-(4-(5-(trifluoromethyl)-1,2,4-oxadiazol-3-yl)phenyl)piperidine-1-carboxamide]: the inhibition at 1 µM on HDAC6 enzyme was 2%; at HDAC9 enzyme, 68%; at HDAC1 enzyme, -7%.

On to `CN(C)c1cccc(C(=O)NCC2CCCCN2C(=O)Nc2ccc(-c3noc(C(F)(F)F)n3)cc2)c1` (stereo not drawn) [Example 28, 2-(((3-(dimethylamino)benzoyl)amino)methyl)-N-(4-(5-(trifluoromethyl)-1,2,4-oxadiazol-3-yl)phenyl)piperidine-1-carboxamide], for which the inhibition at 1 µM on HDAC6 enzyme came to 2%; on HDAC9 enzyme, 86%; on HDAC1 enzyme, 4%.

In the case of `O=C(NCC1CCCCN1C(=O)Nc1ccc(-c2noc(C(F)(F)F)n2)cc1)Nc1ccccc1` (stereo not drawn) [Example 54, 2-(((phenylcarbamoyl)amino)methyl)-N-(4-(5-(trifluoromethyl)-1,2,4-oxadiazol-3-yl)phenyl)piperidine-1-carboxamide], the inhibition at 1 µM at HDAC6 enzyme came to 6%; on HDAC9 enzyme it was 89%; on HDAC1 enzyme, 17%.

In the case of `O=C(NCC1CCCCN1C(=O)Nc1ccc(-c2noc(C(F)(F)F)n2)cc1)c1cccc(O)c1` (stereo not drawn) [Example 26, 2-(((3-hydroxybenzoyl)amino)methyl)-N-(4-(5-(trifluoromethyl)-1,2,4-oxadiazol-3-yl)phenyl)piperidine-1-carboxamide], the figures for the inhibition at 1 µM at HDAC6 enzyme, on HDAC9 enzyme and at HDAC1 enzyme were 2%, 94% and 42%, respectively.

Consider `Cn1nc(C(=O)NCC2CCCCN2C(=O)Nc2ccc(-c3noc(C(F)(F)F)n3)cc2)cc1C(F)(F)F` (stereo not drawn) [Example 59, 2-((((1-methyl-5-(trifluoromethyl)-1H-pyrazol-3-yl)carbonyl)amino)methyl)-N-(4-(5-(trifluoromethyl)-1,2,4-oxadiazol-3-yl)phenyl)piperidine-1-carboxamide], for which the inhibition at 1 µM on HDAC6 enzyme was found to be 1%; on HDAC9 enzyme, 63%; at HDAC1 enzyme, 10%.

For the compound `O=C(NCC1CCCCN1C(=O)Nc1ccc(-c2noc(C(F)(F)F)n2)cc1)c1cccs1` (stereo not drawn) [Example 38, 2-(((2-thienylcarbonyl)amino)methyl)-N-(4-(5-(trifluoromethyl)-1,2,4-oxadiazol-3-yl)phenyl)piperidine-1-carboxamide], the figures for the inhibition at 1 µM on HDAC6 enzyme, at HDAC9 enzyme and at HDAC1 enzyme were 7%, 95% and 37%, respectively.

In the case of `CC(C)(C)OC(=O)NCC1CCCCN1C(=O)Nc1ccc(-c2noc(C(F)(F)F)n2)cc1` (stereo not drawn) [Example 3, tert-butyl ((1-((4-(5-(trifluoromethyl)-1,2,4-oxadiazol-3-yl)phenyl)carbamoyl)piperidin-2-yl)methyl) carbamate], on HDAC6 enzyme, the “HDAC6 inhibitory rate (%) (1 μM)” value worked out at 5%. Also, the “HDAC9 inhibitory rate (%) (1 μM)” value at HDAC9 enzyme is given as 87%. In addition, the “HDAC1 inhibitory rate (%) (1 μM)” value on HDAC1 enzyme was determined as 51%.
